Patent publication US7638678B2, “Animal model for perimenopause and menopause and methods of inducing ovarian failure” (The Arizona Board of Regents, priority 2002, dated 2009)
“Also recorded” adds a separate entry of the source.

What was measured:
[1] = tested on: ovarian follicles; details: mice, cited from earlier work
[2] = tested on: liver enzymes AST and ALT, hepatocellular vacuolar degeneration, plasma lipids; test: Assessment of hepatic function and plasma lipids; type: in vivo, B6C3F1 mice
Experimental: Assessment of Hepatic Function: Hepatocellular vacuolar degeneration and enzymatic activity of circulating aspartate aminotransferase (AST) and alanine aminotransferase (ALT) were determined by the Diagnostic Laboratory of the Arizona Health Sciences Center. Total cholesterol and triglycerides were quantified using Sigma reagents 401-25P and 344-20 respectively. HDL was measured by precipitating apoB-containing lipoproteins (Boehringer Mannheim reagent 543004) and assaying cholesterol in the supernatant fraction using the Sigma 401-25P reagent.

[3] = tested on: estrous cycle; test: Estrous cyclicity by vaginal cytology; type: in vivo, B6C3F1 mice; details: 160 mg/kg i.p.
Experimental: (§1) Treatment: Immature mice (d28) were weighed and injected i.p. with either 80 mg/kg (1, 2, or 3 times daily), 160 mg/kg (1 or 2 times daily), or 240 mg/kg (once daily) with VCD or sesame oil (vehicle control, i.p.) for 15 d resulting in a total daily exposure of 80, 160, 240, or 320 mg/kg (n=6/group). All reagents were obtained from Sigma-Aldrich (St. Louis, Mo.). Estrous cycles of each animal were monitored daily by vaginal cytology from date of vaginal opening to persistent diestrus in VCD-treated mice, and from date of vaginal opening to d120 in controls. On d8, d10, d12, d14, d15, d30, d37, d46, d57 and d120, animals were weighed, euthanized by CO2 inhalation, and the ovaries, liver and trunk blood were collected. Plasma was separated from whole blood and stored at −20° C., and liver tissues were stored at −80° C. At each time point, adrenals, kidneys, uteri, ovaries, liver, and spleen were removed, grossly examined for lesions and wet tissue weights were recorded. Additional blood samples were collected by retro-orbital puncture and plasma was collected and stored on d58, d79, d91, and d100.

[4] = intravenous 14C-tagged VCD, cited from earlier work
[5] = tested on: caspase-3; test: Caspase-3 protease activity in isolated small pre-antral follicles; type: in vivo, B6C3F1 mice
Experimental: Follicle Isolation: Small preantral follicles (fraction 1, 25-100 μm in diameter), were prepared by gentle enzymatic dissociation of ovaries and hand sorting with micropipettes. Pools of follicles were prepared from both ovaries of six mice in each treatment (control or VCD) for each observation. Following isolation, follicles were washed twice with M199 medium and stored at −20° C.
Caspase-3 Protease Activity Measurement: The cleavage activity of caspase-3 was measured by a fluorescent activity assay. Briefly, the enzymatic reaction was carried out at 37° C. in protease assay buffer (20 mM HEPES, 100 mM NaCl, 10 mM dithiothreitol, 1 mM EDTA, 0.1% [w/v] 3-3 ([3-cholamidopropyl] dimethylammonio)-1-propanesulfanate, and 10% sucrose pH 7.2). Cellular protein (60-180 μg) was incubated with 50 μM of caspase-3 substrate, DEVD-AMC, at 37° C. for 60 minutes. Substrate cleavage was detected by measurement of the fluorescence of free 7-amino-4-methylcoumarin (AMC) with an F-2000 fluorescence spectrophotometer (Hitachi, Ltd., Tokyo, Japan) at 460 nm emission upon excitation at 380 nm.

[6] = tested on: femur; test: Femur histology; type: in vivo, B6C3F1 mice; details: 160 mg/kg 15 d, femora d58
Experimental: Histology and oocyte counting: Ovaries were trimmed of fat and placed in Bouin's fixative (2 hours), transferred to 70% ethanol, paraffin-embedded and serially sectioned (4-5 μm), mounted and stained with hematoxylin and eosin. In every 20th section (10-13 sections per ovary), pre-antral follicles were classified as primordial (oocyte surrounded by a single layer of flattened granulosa cells), primary (oocyte surrounded by a single layer of cuboidal cells), secondary (oocyte surrounded by multiple layers of granulosa cells) or antral follicles (follicles containing a fluid-filled antrum). Femora were collected on d58 from both control and VCD-treated animals, fixed in 4% paraformaldehyde, transferred to formaldehyde/formic acid (Cal-Rite, Richard Allan Scientific, Kalamazoo, […]., decalcified 24 hours, vacuum embedded in paraffin and 4.5 μm sections of distal metaphysis were prepared and stained with hematoxylin and eosin.

[7] = Body and wet tissue weights, vaginal opening; type: in vivo, B6C3F1 mice
Experimental: as §1

C1CC2OC2CC1C1CO1 (centres unmarked) [VCD, 4-vinylcyclohexene diepoxide]
Number of primordial and primary follicles compared to vehicle controls ([1]; 12 days of dosing): significant reduction
Numbers of secondary follicles ([1]; 30 days of dosing): significant reduction
Circulating alanine aminotransferase (ALT) ([2]; 160 mg/kg 15 d, d1-d46): not different from controls; also recorded: within the normal range
Circulating aspartate aminotransferase (AST) ([2]; 160 mg/kg 15 d, d1-d46): not different from controls; also recorded: within the normal range
Total plasma cholesterol, HDL and triglycerides ([2]; d10, d15 and d37): within the normal range
Occurrence of hepatocellular vacuolar degeneration ([2]; naive, vehicle-treated control or VCD-treated mice, any time): no difference
Estrous cyclicity ([3]; by d58): all animals were acyclic
Animals with irregular cycle length ([3]; d15, irregular = less than 3 d or greater than 5 d): 7/24
Half life ([4]; blood): 4.4 min
Mean residence time [4]: 4.7 min
Cleavage activity of caspase-3 in isolated small pre-antral follicles relative to controls ([5]; 160 mg/kg or 80 mg/kg i.p., 10 d, 4 hours after final treatment): increased
Caspase-3 activity in small pre-antral (primordial and primary) follicles ([5]; 160 mg/kg/day i.p., 10 d of dosing): 14.37 flourescent units/40 μg protein
Femur morphology relative to controls [6]: enhanced distances from growth plate to distal metaphysis of the femur with increased lucane
Adrenal, kidney and spleen weight ([7]; 160 mg/kg 15 d, any time): not affected; also recorded: no effect
Whole body weights ([7]; 160 mg/kg 15 d, any time-point): not affected
Increase in liver weight ([7]; 160 mg/kg 15 d, d15): 10 % above control
Uterine weight relative to age-matched vehicle controls ([7]; 160 mg/kg 15 d, d15): 66.04%
Increase in liver weight ([7]; 160 mg/kg 15 d, d37): 15 % above control
Ovarian weight ([7]; 160 mg/kg 15 d, d37): 71.2 % of control
Uterine weight relative to age-matched vehicle controls ([7]; 160 mg/kg 15 d, d37): 71.8%
Liver weight ([7]; 160 mg/kg 15 d, d46): returned to control levels
Ovarian weight ([7]; 160 mg/kg 15 d, d46): 61.8 % of control
Ovarian weight ([7]; 160 mg/kg 15 d, d120): 20.7 % of control
Uterine weight relative to age-matched vehicle controls ([7]; 160 mg/kg 15 d, d120): 47.0%
Ovarian tissue weights across treatment groups ([7]; d10 or d15): not significantly different
Onset of vaginal opening ([7]; not affected by VCD treatment): 31 ± 0.5 days
